The values that follow come from PMC9862409 (Pharmaceutics, 2023).

Series [1] concerns the target collagenase type 1 from Clostridium histolyticum. Description: Anti-collagenase assay. The series is classed as biochemical. The following applies: +ve control = EDTA.
Method: For the anti-collagenase, collagenase type 1 from Clostridium histolyticum (1 mg/mL) buffer (pH 7.4) along with tested samples or standard inhibitor ethylenediamine tetraacetic acid (EDTA) (1.4 mg/mL) were incubated at 37 °C for 20 min prior to the addition of 100 µL of the substrate 2-furanacryloyl-l-leucylglycyl-l-prolyl-l-alanine (FALGPA). The mixture was then incubated at 37 °C for an additional 1 h before the addition of 200 µL of 2% ninhydrin in 200 mM citrate buffer (pH 5) and placed in a water bath for 5 min. Afterward, the solution was left to cool down completely. Afterwards 200 µL of 50% isopropanol was added, and the optical densities were analyzed at 540 nm. Various concentrations of the tested samples (25–300 µg/mL) were used.
Series [2] can be described thus: In vitro drug release, dialysis bag diffusion method. The series is classed as physicochemical. The following applies: after 6 h; PBS pH 7.4, 37 °C.
Method: The dissolution medium was phosphate buffer saline (PBS) (pH 7.4), which mimics physiological pH. […] Aliquots of 3 mL were taken from the dissolution medium at predefined time points at 0.5, 1, 2, 3, 4, 5, 6, 7, 8, 10, 12, 24, 36, and finally at 48 h. The sink conditions were maintained by immediately replenishing the equivalent volume of fresh PBS (pH 7.4) after each aliquot withdrawal. […] The study was performed in triplicate and was graphically presented as the cumulative percentage of drug release versus time. Data from the in vitro drug release study was further analyzed using different kinetic models to determine the drug release pattern.
Statistical analysis of in vitro drug release kinetic models was carried out using one-way analysis of variance (ANOVA) followed by Tukey’s Multiple Comparison post hoc test; p ≤ 0.05. […] Analyses were done using GraphPad Prism 6.01 (San Diego, CA, USA).
The next series concerns Staphylococcus aureus. Description: MIC by broth microdilution method. The series is classed as cell-based. As to conditions: Staphylococcus aureus (ATCC® 25922). On the procedure: (§1) The MIC was determined by the broth microdilution method. […] Stock solutions were serially diluted (2-fold) in sterile Müeller Hinton broth (MHB) with a dilution range of 0.125 to 150 µg/mL. Overnight culture turbidity was adjusted equivalent to the 0.5 McFarland standard and then diluted to give a final concentration equivalent to 10^6 CFU/mL [30]. One hundred microliters of the adjusted bacterial culture were added to an equal volume of the tested dilutions in a 96-well microtiter plate. The plates were then incubated at 37 °C for 24 h.
(§2) The MIC was recorded as the lowest concentration of an antimicrobial agent, which gave no visible growth. […] The experiment was conducted in triplicate. The mean as well as standard deviation were recorded.

Series [3] relates to methicillin-resistant Staphylococcus aureus (MRSA). Description: MIC by broth microdilution method. The series is classed as cell-based. The protocol:
as §1, §2
For orientation: Broth dilution looks for growth in wells or tubes with falling amounts of substance.

The next series deals with T1, human leukocyte elastase (Homo sapiens, UniProt P08246).
T1 construct: purchased Nawah Scientific Inc., Cairo, Egypt
T1 sequence (P08246 30-267): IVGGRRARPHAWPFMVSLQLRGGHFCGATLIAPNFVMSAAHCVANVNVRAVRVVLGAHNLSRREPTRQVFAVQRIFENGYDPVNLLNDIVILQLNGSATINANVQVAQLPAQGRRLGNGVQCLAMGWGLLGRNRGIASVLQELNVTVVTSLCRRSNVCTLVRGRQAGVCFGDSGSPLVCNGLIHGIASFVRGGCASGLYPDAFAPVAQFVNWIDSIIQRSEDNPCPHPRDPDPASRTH
The series is described as follows: Anti-elastase assay. The series is classed as biochemical.

The test system of another series is RBCs. As to conditions: cited from earlier work.
The target in the next series is mushroom tyrosinase. Description: Anti-tyrosinase assay. The series is classed as biochemical. On the procedure: For the anti-tyrosinase assay, mushroom tyrosinase (5600 units/mL) was incubated at 37 °C for 15 min along with tested samples or standard inhibitor kojic acid (1.4 mg/mL) before the addition of the substrate 1 mM L-DOPA. Afterward, the optical density of the formed dopachrome was analyzed at 475 nm. Various concentrations of the tested samples (75–500 µg/mL) were used. All tests were conducted in triplicate. The enzyme inhibition activity was expressed in percentage using the following equation: (5) Enzyme inhibition activity %=Optical density of control – Optical density of sample/Optical density of control×100
Statistical analysis of in vitro drug release kinetic models was carried out using one-way analysis of variance (ANOVA) followed by Tukey’s Multiple Comparison post hoc test; p ≤ 0.05. Moreover, in vitro skin-related enzyme inhibitory assays were carried out in triplicates, and results were expressed as mean ± standard deviation. A non-linear regression curve was used to calculate IC50. An unpaired t-test was used for statistical comparison between the two groups. p < 0.05 is considered statistically significant. Analyses were done using GraphPad Prism 6.01 (San Diego, CA, USA).

Where [4] appears, read: susceptible ≤4 µg/mL, resistant ≥8 µg/mL.

Values after ≈ are worked out from the molar mass of the structure shown.

Method for human leukocyte elastase: The anti-elastase, anti-collagenase, and anti-tyrosinase activities were assessed following the method reported by Mostafa et al. [32]. […] For the anti-elastase assay, human leukocyte elastase (1 µg/mL) was incubated with N-2-hydroxyethylpiperazine-N-2-ethane sulfonic acid (HEPES) buffer (pH 7.5). Each of the tested samples or the standard inhibitor N-Methoxysuccinyl-Ala-Ala-Pro-chloromethyl ketone (1.4 mg/mL) was added into the 96-well plate for 20 min at 25 °C before the addition of 100 µL substrate of 1 mM N-Methoxysuccinyl-Ala-Ala-Pro-Val-p-nitroanilide. Afterward, the optical density was measured after 40 min of incubation at 405 nm against a blank well lacking the test sample/inhibitor. Various concentrations of the tested samples (25–300 µg/mL) were used.
Moreover, in vitro skin-related enzyme inhibitory assays were carried out in triplicates, and results were expressed as mean ± standard deviation. A non-linear regression curve was used to calculate IC50. An unpaired t-test was used for statistical comparison between the two groups. p < 0.05 is considered statistically significant. […]

For the compound `CC(=O)NC[C@H]1CN(c2ccc(N3CCOCC3)c(F)c2)C(=O)O1` [LNZ, Linezolid], the “Anti-Collagenase IC50” value in series [1] is listed as 335.34 ± 2.09 µg/mL. Besides, the “percentage LNZ released” value in series [2] was approximately 98 ± 0.5%. In addition, the MIC with Staphylococcus aureus (ATCC25922, 37 °C, 24 h, read-out: Minimum Inhibitory Concentration (MIC)) was found to be 4 µg/mL (≈ 11.9 µM); in series [3] (Staphylococcus aureus, 37 °C, 24 h, read-out: Minimum Inhibitory Concentration (MIC)), 4 µg/mL (≈ 11.9 µM). Moreover, the “Minimum Inhibitory Concentration (MIC)” value is 4 ± 0.00 µg/mL in the series with Staphylococcus aureus (37 °C, 24 h) and 4 ± 0.00 µg/mL in series [3] (37 °C, 24 h). Besides, the “susceptibility class (CLSI breakpoints)” value (in the series with Staphylococcus aureus (setting [4]); in series [3] (setting [4])) was “S (S: sensitive)” in each case. On human leukocyte elastase (+ve control = N-Methoxysuccinyl-Ala-Ala-Pro-chloromethyl ketone, read-out: Anti-Elastase IC50 (µg/mL) (converted)), the IC50 was 170 µM. In addition, at human leukocyte elastase (samples tested 25–300 µg/mL, concentration of this value not stated, +ve control = N-Methoxysuccinyl-Ala-Ala-Pro-chloromethyl ketone (1.4 mg/mL)), the “Anti-Elastase % Inhibition” value amounted to 88.00 ± 1.35%. The hemolysis percentage in the series with RBCs is listed as 14%. On mushroom tyrosinase (+ve control = kojic acid), the “Anti-Tyrosinase IC50” value was found to be 363.50 ± 2.08 µg/mL. Besides, the “Anti-Tyrosinase % Inhibition” value with mushroom tyrosinase (samples tested 75–500 µg/mL, concentration of this value not stated, +ve control = kojic acid (1.4 mg/mL)) is listed as 65.00 ± 1.63%.
